Results from PubChem BioAssay AID286 (DTP/NCI, 2004).
“And” between values parts separate entries of the source, which are not always exact repeats. Identical values can stand only once. Toxic doses and inconclusive results are not listed.

Tested on: BDF1 mice, M5076 sarcoma ip, median survival T/C
Assay: NCI In Vivo Anticancer Drug Screen. Data for tumor model Sarcoma M5076 (intraperitoneal) in B6D2F1 (BDF1) mice
Settings: endpoint: median survival time, higher = longer survival
Description: The antitumor activity of compounds was measured in mice bearing transplantable tumors. Survival or tumor size were measured and the results are expressed as the measurement made in the treated group (T) divided by the measurement made in the vehicle treated control group (C). The tumor model used in this assay is Sarcoma M5076 (intraperitoneal) in B6D2F1 (BDF1) mice

[1] = dose: 50.0 mg/kg/injection, schedule: Q04DX004 (ip), vehicle: saline with Tween-80
[2] = dose: 100.0 mg/kg/injection, schedule: Q04DX004 (ip), vehicle: saline with Tween-80
[3] = dose: 200.0 mg/kg/injection, schedule: Q04DX004 (ip), vehicle: saline with Tween-80
[4] = dose: 400.0 mg/kg/injection, schedule: Q04DX004 (ip), vehicle: saline with Tween-80
[5] = dose: 100.0 mg/kg/injection, schedule: Q04DX004 (ip), vehicle: saline
[6] = dose: 10.0 mg/kg/injection, schedule: Q01DX009 (ip), vehicle: Klucel (hydroxypropylcellulose) (HPC)
[7] = dose: 12.5 mg/kg/injection, schedule: Q04DX004 (ip), vehicle: saline
[8] = dose: 0.5 mg/kg/injection, schedule: Q01DX009 (ip), vehicle: saline + alcohol
[9] = dose: 1.0 mg/kg/injection, schedule: Q01DX009 (ip), vehicle: saline + alcohol
[10] = dose: 100.0 mg/kg/injection, schedule: Q04DX004 (ip), vehicle: Klucel (hydroxypropylcellulose) (HPC)
[11] = dose: 200.0 mg/kg/injection, schedule: Q04DX004 (ip), vehicle: Klucel (hydroxypropylcellulose) (HPC)
[12] = dose: 400.0 mg/kg/injection, schedule: Q04DX004 (ip), vehicle: Klucel (hydroxypropylcellulose) (HPC)

## O=C1c2ccccc2C(Cl)(c2ccc(Cl)cc2)c2ccc(Cl)cc21 (stereo not drawn)
[1]
  T/C: 116 % of control
[2]
  T/C: 107 % of control
[3]
  T/C: 108 % of control
[4]
  T/C: 100 % of control

## Nc1nc2c(c(=O)[nH]1)N(C=O)C(CNc1ccc(C(=O)N[C@@H](CCC(=O)O)C(=O)O)cc1)CN2 (stereo partly drawn)
dose: 50.0 mg/kg/injection, schedule: Q01DX009 (ip), vehicle: sodium bicarbonate
  T/C: 96 % of control
dose: 100.0 mg/kg/injection, schedule: Q01DX009 (ip), vehicle: sodium bicarbonate
  T/C: 86 % of control
dose: 200.0 mg/kg/injection, schedule: Q01DX009 (ip), vehicle: sodium bicarbonate
  T/C: 94 % of control

## O=c1[nH]cc(F)c(=O)[nH]1
dose: 6.25 mg/kg/injection, schedule: Q04DX005 (ip), vehicle: saline
  T/C: 185 % of control
dose: 16.0 mg/kg/injection, schedule: Q01DX009 (ip), vehicle: saline
  T/C: 117 % of control
dose: 21.6 mg/kg/injection, schedule: Q04DX004 (ip), vehicle: saline
  T/C: 123 % of control
dose: 50.0 mg/kg/injection, schedule: Q04DX005 (ip), vehicle: saline
  T/C: 112 % of control
[5]
  T/C: 154 % of control
dose: 100.0 mg/kg/injection, schedule: Q04DX005 (ip), vehicle: saline
  T/C: 176 % of control

## COc1cc2nc3occc3c(OC)c2cc1OCC(O)C(C)(C)O (stereo not drawn)
dose: 2.0 mg/kg/injection, schedule: Q01DX009 (ip), vehicle: Klucel (hydroxypropylcellulose) (HPC)
  T/C: 106 % of control
dose: 4.0 mg/kg/injection, schedule: Q01DX009 (ip), vehicle: Klucel (hydroxypropylcellulose) (HPC)
  T/C: 117 % of control
dose: 8.0 mg/kg/injection, schedule: Q01DX009 (ip), vehicle: Klucel (hydroxypropylcellulose) (HPC)
  T/C: 106 % of control
dose: 16.0 mg/kg/injection, schedule: Q01DX009 (ip), vehicle: Klucel (hydroxypropylcellulose) (HPC)
  T/C: 113 % of control
dose: 32.0 mg/kg/injection, schedule: Q01DX009 (ip), vehicle: Klucel (hydroxypropylcellulose) (HPC)
  T/C: 106 % of control

## COc1cc(NCc2ccc3nc(N)nc(N)c3c2C)cc(OC)c1OC
[6]
  T/C: 173 % of control
dose: 15.0 mg/kg/injection, schedule: Q04DX005 (ip), vehicle: Klucel (hydroxypropylcellulose) (HPC)
  T/C: 168 % of control
dose: 20.0 mg/kg/injection, schedule: Q01DX009 (ip), vehicle: Klucel (hydroxypropylcellulose) (HPC)
  T/C: 173 % of control
dose: 30.0 mg/kg/injection, schedule: Q04DX005 (ip), vehicle: Klucel (hydroxypropylcellulose) (HPC)
  T/C: 171 % of control
dose: 60.0 mg/kg/injection, schedule: Q04DX005 (ip), vehicle: Klucel (hydroxypropylcellulose) (HPC)
  T/C: 206 % of control

## O=C1c2ccccc2C(=O)c2c(NCCNCCO)ccc(NCCNCCO)c21
dose: 5.0 mg/kg/injection, schedule: Q04DX005 (ip), vehicle: saline
  T/C: 277 % of control
dose: 10.0 mg/kg/injection, schedule: Q04DX005 (ip), vehicle: saline
  T/C: 357 % of control

## CC(=O)/C(=C\c1ccc(Cl)c(Cl)c1)C(=O)CCN(C)C
[7]
  T/C: 100 % of control
dose: 25.0 mg/kg/injection, schedule: Q04DX004 (ip), vehicle: saline
  T/C: 97 % of control
dose: 50.0 mg/kg/injection, schedule: Q04DX004 (ip), vehicle: saline
  T/C: 101 % of control
[5]
  T/C: 86 % of control

## COC(=O)[C@@]12OC[C@]34[C@H]([C@@H](O)[C@@H]1O)[C@@]1(C)CC(=O)C(O)=C(C)[C@@H]1C[C@H]3OC(=O)[C@H](OC(=O)/C=C(\C)C(C)C)[C@@H]24
dose: 0.12 mg/kg/injection, schedule: Q04DX004 (ip), vehicle: saline
  T/C: 104 % of control and 107 % of control and 113 % of control
dose: 0.12 mg/kg/injection, schedule: Q04DX005 (ip), vehicle: saline
  T/C: 108 % of control (2×) and 116 % of control
dose: 0.13 mg/kg/injection, schedule: Q04DX004 (ip), vehicle: saline
  T/C: 111 % of control and 114 % of control
dose: 0.13 mg/kg/injection, schedule: Q04DX005 (ip), vehicle: saline
  T/C: 106 % of control and 114 % of control

## CC[C@](O)(C(=O)O)c1cc2n(c(=O)c1CO)Cc1cc3ccccc3nc1-2
[7]
  T/C: 124 % of control

## CCC/C=C/C=C/C(=O)OC1C(C)C2(O)C3C=C(C)C(=O)C3CC(COC(C)=O)=CC2C2C(C)(C)C12OC(=O)C(C)C (stereo not drawn)
dose: 0.38 mg/kg/injection, schedule: Q01DX009 (ip), vehicle: saline + alcohol
  T/C: 110 % of control
dose: 0.75 mg/kg/injection, schedule: Q01DX009 (ip), vehicle: saline + alcohol
  T/C: 103 % of control
dose: 1.5 mg/kg/injection, schedule: Q01DX009 (ip), vehicle: saline + alcohol
  T/C: 110 % of control
dose: 3.0 mg/kg/injection, schedule: Q01DX009 (ip), vehicle: saline + alcohol
  T/C: 114 % of control
dose: 6.0 mg/kg/injection, schedule: Q01DX009 (ip), vehicle: saline + alcohol
  T/C: 115 % of control

## COC(=O)Nc1ccc(Cc2ccc(NC(=O)OC)cc2)cc1
[1]
  T/C: 89 % of control
[2]
  T/C: 103 % of control
[3]
  T/C: 118 % of control
[4]
  T/C: 185 % of control

## CN(C)CCN1C(=O)c2cccc3cc(N)cc(c23)C1=O
dose: 4.5 mg/kg/injection, schedule: Q04DX004 (ip), vehicle: acid diluted with saline
  T/C: 109 % of control
dose: 9.0 mg/kg/injection, schedule: Q04DX004 (ip), vehicle: acid diluted with saline
  T/C: 107 % of control
dose: 18.0 mg/kg/injection, schedule: Q04DX004 (ip), vehicle: acid diluted with saline
  T/C: 115 % of control

## C=C1C(=O)OC2C(OC(C)=O)C1C(OC(=O)C(C)CC)[C@]1(C)C(=O)C=C[C@H]1[C@@H]2C (stereo partly drawn)
dose: 1.25 mg/kg/injection, schedule: Q01DX009 (ip), vehicle: Klucel (hydroxypropylcellulose) (HPC)
  T/C: 110 % of control
dose: 2.5 mg/kg/injection, schedule: Q01DX009 (ip), vehicle: Klucel (hydroxypropylcellulose) (HPC)
  T/C: 107 % of control
dose: 5.0 mg/kg/injection, schedule: Q01DX009 (ip), vehicle: Klucel (hydroxypropylcellulose) (HPC)
  T/C: 101 % of control
[6]
  T/C: 110 % of control

## COC1=C(C)C(=O)C2=C(C1=O)C(CO)N1C(C#N)C3CC4C(C1C2N1CCOC41)N3C (stereo not drawn)
dose: 0.06 mg/kg/injection, schedule: Q01DX009 (ip), vehicle: saline + alcohol
  T/C: 116 % of control
dose: 0.13 mg/kg/injection, schedule: Q01DX009 (ip), vehicle: saline + alcohol
  T/C: 95 % of control
dose: 0.25 mg/kg/injection, schedule: Q01DX009 (ip), vehicle: saline + alcohol
  T/C: 98 % of control
[8]
  T/C: 103 % of control
[9]
  T/C: 122 % of control
dose: 62.5 micrograms/kg/injection, schedule: Q01DX009 (ip), vehicle: acid diluted with saline
  T/C: 107 % of control
dose: 125.0 micrograms/kg/injection, schedule: Q01DX009 (ip), vehicle: acid diluted with saline
  T/C: 96 % of control
dose: 250.0 micrograms/kg/injection, schedule: Q01DX009 (ip), vehicle: acid diluted with saline
  T/C: 96 % of control
dose: 500.0 micrograms/kg/injection, schedule: Q01DX009 (ip), vehicle: acid diluted with saline
  T/C: 109 % of control

## O=C(NC(Cc1ccc(I)cc1)C(=O)O)c1cccc(Br)c1 (stereo not drawn)
[10]
  T/C: 116 % of control
[11]
  T/C: 114 % of control
[12]
  T/C: 99 % of control

## COc1cc(NCc2ccc3nc(N)nc(N)c3c2C)cc(OC)c1OC (tested in a mixture with another compound)
dose: 10.0 mg/kg/injection, schedule: Q04DX005 (ip), vehicle: water
  T/C: 108 % of control
dose: 40.0 mg/kg/injection, schedule: Q04DX005 (ip), vehicle: water
  T/C: 120 % of control

## C=CCOc1cc2c(cc1C(C)c1ccc(OC)cc1)OCO2 (stereo not drawn)
dose: 25.0 mg/kg/injection, schedule: Q04DX004 (ip), vehicle: Klucel (hydroxypropylcellulose) (HPC)
  T/C: 104 % of control
dose: 50.0 mg/kg/injection, schedule: Q04DX004 (ip), vehicle: Klucel (hydroxypropylcellulose) (HPC)
  T/C: 118 % of control
[10]
  T/C: 102 % of control
[11]
  T/C: 118 % of control
[12]
  T/C: 214 % of control

## C=C1C(=O)O[C@H]2C1[C@H](OC(=O)/C(C)=C\C)CC(=C)[C@@H]1C(=O)[C@H]3O[C@@]3(C)[C@@]12O (stereo partly drawn)
[8]
  T/C: 107 % of control
[9]
  T/C: 102 % of control
dose: 2.0 mg/kg/injection, schedule: Q01DX009 (ip), vehicle: saline + alcohol
  T/C: 104 % of control
dose: 5.0 mg/kg/injection, schedule: Q01DX009 (ip), vehicle: saline + alcohol
  T/C: 113 % of control
